Data reported in patent US10550093B2, “Third generation taxoids and methods of using same” (The Research Foundation for the State University of New York, priority 2015, dated 2020).

Assays:
Assay type in all cases: cell-based
[1] = test system: PANC-1 human pancreatic cancer cell line; assay: Cytotoxicity of third-generation taxoids, PANC-1; settings: PANC-1 cells
[2] = test system: LCC6-WT; assay: Cytotoxicity of third-generation taxoids, LCC6-WT; settings: LCC6-WT cells
[3] = test system: CFPAC-1 human pancreatic cancer cell line; assay: Cytotoxicity of third-generation taxoids, CFPAC-1; settings: CFPAC-1 cells
[4] = test system: MCF7 human breast cancer cell line; assay: Cytotoxicity of third-generation taxoids, MCF7; settings: MCF7 cells
[5] = test system: ID8 murine ovarian cancer cell line; assay: Cytotoxicity of third-generation taxoids, ID8; settings: ID8 cells
[6] = test system: NCI/ADR drug resistant (Pgp+) human ovarian cancer cell line; assay: Cytotoxicity of third-generation taxoids, NCI/ADR; settings: NCI/ADR-RES, NCI/ADR cells
[7] = test system: LCC6-MDR drug resistant (Pgp+) human breast cancer cell line; assay: Cytotoxicity of third-generation taxoids, LCC6-MDR; settings: LCC6-MDR cells

| SMILES | IC50 [1] | IC50 [2] | IC50 [3] | IC50 [4] | also measured |
| --- | --- | --- | --- | --- | --- |
| C=C(C)CC(NC(=O)OC(C)(C)C)C(O)C(=O)OC1CC2(O)C(OC(=O)c3cccc(OC(F)(F)F)c3)C3C4(OC(C)=O)COC4CC(O)C3(C)C(=O)C(OC(=O)CC)C(=C1C)C2(C)C (stereo not shown) [SB-T-121305, 2-Debenzoyl-2-(3-trifluromethoxybenzoyl)-3′-dephenyl-10-propanoyl-3′-(2-methyl-2-propenyl)-docetaxel] | 1.12 nM | 1.54 nM | 1.75 nM | 1.74 nM |  |
| C=C(C)CC(NC(=O)OC(C)(C)C)C(O)C(=O)OC1CC2(O)C(OC(=O)c3cccc(OC(F)F)c3)C3C4(OC(C)=O)COC4CC(O)C3(C)C(=O)C(OC(=O)C3CC3)C(=C1C)C2(C)C (stereo not shown) [SB-T-121406, 2-Debenzoyl-2-(3-difluromethoxybenzoyl)-3′-dephenyl-10-cyclopropanecarbonyl-3′-(2-methyl-2-propenyl)docetaxel] | 0.75 nM | 0.33 nM | 0.31 nM | 0.29 nM |  |
| C=C(C)CC(NC(=O)OC(C)(C)C)C(O)C(=O)OC1CC2(O)C(OC(=O)c3cccc(OC(F)(F)F)c3)C3C4(OC(C)=O)COC4CC(O)C3(C)C(=O)C(OC(C)=O)C(=C1C)C2(C)C (stereo not shown) [SB-T-121205, 2-Debenzoyl-2-(3-trifluromethoxybenzoyl)-3′-dephenyl-10-acetyl-3′-(2-methyl-2-propenyl)docetaxel] | 0.76 nM | 0.45 nM | 0.4 nM | 0.23 nM | IC50 [5]: 0.23 nM |
| CC(=O)O[C@H]1C(=O)[C@@]2(C)[C@H]([C@H](OC(=O)c3ccccc3)[C@]3(O)C[C@H](OC(=O)[C@H](O)[C@@H](NC(=O)c4ccccc4)c4ccccc4)C(C)=C1C3(C)C)[C@]1(OC(C)=O)CO[C@@H]1C[C@@H]2O [paclitaxel, reference compound] |  | 3.1 nM |  |  | IC50 ([1]; Homo sapiens): 3.78 nM; IC50 ([5]; Mus musculus): 2.02 nM; IC50 [6]: 361 nM; IC50 ([7]; Homo sapiens, LCC6MDR): 346 nM; IC50 ([3]; Homo sapiens): 68 nM; IC50 ([4]; Homo sapiens): 3.13 nM |
| C=C(C)CC(NC(=O)OC(C)(C)C)C(O)C(=O)OC1CC2(O)C(OC(=O)c3cccc(OC(F)(F)F)c3)C3C4(OC(C)=O)COC4CC(O)C3(C)C(=O)C(OC(=O)OC)C(=C1C)C2(C)C (stereo not shown) [SB-T-121705, 2-Debenzoyl-2-(3-trifluromethoxybenzoyl)-3′-dephenyl-10-(methoxycarbonyl)-3′-(2-methyl-2-propenyl)docetaxel] | 1.17 nM | 0.59 nM | 0.8 nM | 0.98 nM |  |
| C=C(C)CC(NC(=O)OC(C)(C)C)C(O)C(=O)OC1CC2(O)C(OC(=O)c3cccc(OC(F)(F)F)c3)C3C4(OC(C)=O)COC4CC(O)C3(C)C(=O)C(OC)C(=C1C)C2(C)C (stereo not shown) [SB-T-123005, 2-Debenzoyl-2-(3-trifluromethoxybenzoyl)-10-methyl-3′-dephenyl-3′-(2-methyl-2-propenyl)-docetaxel] | 0.87 nM |  | 7.3 nM | 2.46 nM | IC50 [5]: 1.43 nM |
| C=C(C)CC(NC(=O)OC(C)(C)C)C(O)C(=O)OC1CC2(O)C(OC(=O)c3cccc(OC(F)F)c3)C3C4(OC(C)=O)COC4CC(OC)C3(C)C(=O)C(OC)C(=C1C)C2(C)C (stereo not shown) [SB-T-1230106, 2-Debenzoyl-2-(3-difluromethoxybenzoyl)-7,10-dimethyl-3′-dephenyl-3′-(2-methyl-2-propenyl)-docetaxel] |  | 0.72 nM |  |  | IC50 [7]: 4.7 nM |
| C=C(C)C[C@H](NC(=O)OC(C)(C)C)[C@@H](O)C(=O)O[C@H]1C[C@@]2(O)[C@@H](OC(=O)c3cccc(OC(F)F)c3)[C@@H]3[C@]4(OC(C)=O)CO[C@@H]4C[C@H](O)[C@@]3(C)C(=O)[C@H](OC(=O)CC)C(=C1C)C2(C)C [SB-T-121306, 2-Debenzoyl-2-(3-difluromethoxybenzoyl)-3′-dephenyl-10-propanoyl-3′-(2-methyl-2-propenyl)docetaxel] | 0.49 nM | 0.81 nM | 0.17 nM | 0.54 nM |  |
| C=C(C)CC(NC(=O)OC(C)(C)C)C(O)C(=O)OC1CC2(O)C(OC(=O)c3cccc(OC(F)F)c3)C3C4(OC(C)=O)COC4CC(O)C3(C)C(=O)C(OC(C)=O)C(=C1C)C2(C)C (stereo not shown) [SB-T-121206, 2-Debenzoyl-2-(3-difluromethoxybenzoyl)-3′-dephenyl-10-acetyl-3′-(2-methyl-2-propenyl)docetaxel] | 0.49 nM | 0.28 nM | 0.23 nM | 0.31 nM | IC50 [5]: 0.35 nM |
| CC(=O)O[C@@]12CO[C@@H]1C[C@H](O)[C@@]1(C)C(=O)[C@H](OC(=O)C3CC3)C3=C(C)[C@@H](OC(=O)[C@H](O)[C@H](CC(C)C)NC(=O)OC(C)(C)C)C[C@@](O)([C@@H](OC(=O)c4cccc(OC(F)(F)F)c4)[C@H]21)C3(C)C [SB-T-111405, 2-Debenzoyl-2-(3-trifluromethoxybenzoyl)-3′-dephenyl-10-(cyclopropanecarbonyl)-3′-(2-methylpropyl)docetaxel] |  |  |  |  | IC50 ([1]; Homo sapiens): 0.56 nM; IC50 ([5]; Mus musculus): 0.28 nM; IC50 ([7]; Homo sapiens, LCC6MDR): 0.98 nM; IC50 ([3]; Homo sapiens): 2.3 nM |
| C=C(C)CC(NC(=O)OC(C)(C)C)C(O)C(=O)OC1CC2(O)C(OC(=O)c3cccc(OC(F)(F)F)c3)C3C4(OC(C)=O)COC4CC(OC)C3(C)C(=O)C(OC)C(=C1C)C2(C)C (stereo not shown) [SB-T-1230105, 2-Debenzoyl-2-(3-trifluromethoxybenzoyl)-7,10-dimethyl-3′-dephenyl-3′-(2-methyl-2-propenyl)-docetaxel] | 0.98 nM | 0.55 nM |  |  | IC50 [7]: 6.98 nM |
| CC(=O)O[C@@]12CO[C@@H]1C[C@H](O)[C@@]1(C)C(=O)[C@H](OC(=O)C3CC3)C3=C(C)[C@@H](OC(=O)[C@H](O)[C@H](C=C(C)C)NC(=O)OC(C)(C)C)C[C@@](O)([C@@H](OC(=O)c4cccc(OC(F)(F)F)c4)[C@H]21)C3(C)C [SB-T-121405] |  | 1.01 nM |  |  | IC50 ([1]; Homo sapiens): 0.32 nM; IC50 ([5]; Mus musculus): 0.33 nM; IC50 ([3]; Homo sapiens): 0.36 nM; IC50 ([4]; Homo sapiens): 0.98 nM |
| C=C(C)CC(NC(=O)OC(C)(C)C)C(O)C(=O)OC1CC2(O)C(OC(=O)c3cccc(OC(F)(F)F)c3)C3C4(OC(C)=O)COC4CC(O)C3(C)C(=O)C(OC(=O)N(C)C)C(=C1C)C2(C)C (stereo not shown) [SB-T-121605, 2-Debenzoyl-2-(3-trifluromethoxybenzoyl)-3′-dephenyl-10-(N,N-dimethylcarbamoyl)-3′-(2-methyl-2-propenyl)docetaxel] | 0.54 nM |  | 0.56 nM |  | IC50 [5]: 0.25 nM |
| C=C(C)CC(NC(=O)OC(C)(C)C)C(O)C(=O)OC1CC2(O)C(OC(=O)c3cccc(OC(F)F)c3)C3C4(OC(C)=O)COC4CC(O)C3(C)C(=O)C(OC(=O)OC)C(=C1C)C2(C)C (stereo not shown) [SB-T-121706] | 1.06 nM | 0.46 nM | 0.15 nM | 0.12 nM |  |
